Columns and labels:
Format in all cases: cell-based
hTP = target: T1, hTP (Homo sapiens, UniProt P21731); experiment: FLIPR calcium signal, hTP; details: FLIPR Ca2+ signal, HEK-293(EBNA); read-out: FUNCTIONAL EC50 HTP
T1 construct: expressed in transfected cells; host or cells: HEK-293(EBNA)
T1 sequence (P21731 1-343): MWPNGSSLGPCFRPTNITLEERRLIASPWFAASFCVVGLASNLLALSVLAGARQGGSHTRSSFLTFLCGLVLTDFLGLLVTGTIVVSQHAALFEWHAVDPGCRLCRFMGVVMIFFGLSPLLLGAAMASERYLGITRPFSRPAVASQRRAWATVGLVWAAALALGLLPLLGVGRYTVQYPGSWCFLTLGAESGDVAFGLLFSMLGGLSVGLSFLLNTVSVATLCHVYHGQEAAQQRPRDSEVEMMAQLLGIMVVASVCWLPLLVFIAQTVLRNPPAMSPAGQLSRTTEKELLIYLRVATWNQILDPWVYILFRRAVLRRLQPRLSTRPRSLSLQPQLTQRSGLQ
Protocol: (§1) HEK-293(EBNA) cells, stably expressing one type or subtype of recombinant human prostaglandin receptors (prostaglandin receptors expressed: hDP/Gqs5; hEP1; hEP2/Gqs5; hEP3A/Gqi5; hEP4/Gqs5; hFP; hIP; hTP), were cultured in 100 mm culture dishes in high-glucose DMEM medium containing 10% fetal bovine serum, 2 mM 1-glutamine, 250 μg/ml geneticin (G418) and 200 μg/ml hygromycin B as selection markers, and 100 units/ml penicillin G, 100 μg/ml streptomycin and 0.25 μg/ml amphotericin B. • (b) Calcium Signal Studies on the FLIPR™
(§2) Cells were seeded at a density of 5×10^4 cells per well in Biocoat® Poly-D-lysine-coated black-wall, clear-bottom 96-well plates (Becton-Dickinson) and allowed to attach overnight in an incubator at 37° C. Cells were then washed two times with HBSS-HEPES buffer (Hanks Balanced Salt Solution without bicarbonate and phenol red, 20 mM HEPES, pH 7.4) using a Denley Cellwash plate washer (Labsystems). After 45 minutes of dye-loading in the dark, using the calcium-sensitive dye Fluo-4 AM at a final concentration of 2 μM, plates were washed four times with HBSS-HEPES buffer to remove excess dye leaving 100 μl in each well. Plates were re-equilibrated to 37° C. for a few minutes.
(§3) Cells were excited with an Argon laser at 488 nm, and emission was measured through a 510-570 nm bandwidth emission filter (FLIPR™, Molecular Devices, Sunnyvale, Calif.). Drug solution was added in a 50 μl volume to each well to give the desired final concentration. The peak increase in fluorescence intensity was recorded for each well. On each plate, four wells each served as negative (HBSS-HEPES buffer) and positive controls (standard agonists: BW245C (hDP); PGE2 (hEP1; hEP2/Gqs5; hEP3A/Gqi5; hEP4/Gqs5); PGF2α (hFP); carbacyclin (hIP); U-46619 (hTP), depending on receptor). The peak fluorescence change in each drug-containing well was then expressed relative to the controls.
(§4) Compounds were tested in a high-throughput (HTS) or concentration-response (CoRe) format. In the HTS format, forty-four compounds per plate were examined in duplicates at a concentration of 10^−5 M. To generate concentration-response curves, four compounds per plate were tested in duplicates in a concentration range between 10^−5 and 10^−11 M. The duplicate values were averaged. In either, HTS or CoRe format each compound was tested on at least 3 separate plates using cells from different passages to give an n≧3.

hEP2/Gqs5 = target: T2, hEP2/Gqs5 (Homo sapiens, UniProt P43116); experiment: FLIPR calcium signal, hEP2; details: FLIPR Ca2+ signal, HEK-293(EBNA); read-out: FUNCTIONAL EC50 HEP2
T2 construct: expressed in transfected cells; host or cells: HEK-293(EBNA)
Protocol: as §1, §2, §3, §4

hDP/Gqs5 = target: T3, hDP/Gqs5 (Homo sapiens, UniProt Q13258); experiment: FLIPR calcium signal, hDP; details: FLIPR Ca2+ signal, HEK-293(EBNA); read-out: FUNCTIONAL EC50 HDP
T3 construct: expressed in transfected cells; host or cells: HEK-293(EBNA)
T3 sequence (Q13258 1-359): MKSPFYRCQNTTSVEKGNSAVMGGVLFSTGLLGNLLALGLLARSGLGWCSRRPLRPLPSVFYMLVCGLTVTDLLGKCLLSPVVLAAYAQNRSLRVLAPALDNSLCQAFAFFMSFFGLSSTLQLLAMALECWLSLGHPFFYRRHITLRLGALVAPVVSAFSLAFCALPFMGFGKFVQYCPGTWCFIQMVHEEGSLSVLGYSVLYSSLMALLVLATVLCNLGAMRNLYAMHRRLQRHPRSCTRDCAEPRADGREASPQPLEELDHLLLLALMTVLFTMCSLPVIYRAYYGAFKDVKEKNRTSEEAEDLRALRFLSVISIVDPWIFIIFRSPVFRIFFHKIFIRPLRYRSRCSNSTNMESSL
Protocol: as §1, §2, §3, §4

T2 sequence (P43116 whole entry): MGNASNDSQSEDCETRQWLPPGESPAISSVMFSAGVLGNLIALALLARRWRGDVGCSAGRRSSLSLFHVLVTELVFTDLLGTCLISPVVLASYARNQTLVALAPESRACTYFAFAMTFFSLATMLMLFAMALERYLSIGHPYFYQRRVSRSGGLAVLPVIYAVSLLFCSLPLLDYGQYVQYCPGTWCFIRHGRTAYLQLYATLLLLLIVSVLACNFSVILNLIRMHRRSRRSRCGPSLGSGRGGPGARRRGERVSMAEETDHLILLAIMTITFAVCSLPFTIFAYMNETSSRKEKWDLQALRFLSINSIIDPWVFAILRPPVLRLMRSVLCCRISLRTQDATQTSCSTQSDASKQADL

`CCCC1(C(O)c2ccc([C@H]3[C@H](O)CC(=O)[C@@H]3C/C=C\CCCC(=O)OC)cc2)CCC1` (stereo partly shown) gave an EC50 (hTP) of over 10 µM.

Work on `COC(=O)CCC/C=C\C[C@H]1C(=O)C[C@@H](O)[C@@H]1c1ccc(C(C)(C)C)cc1` yielded an EC50 (hEP2/Gqs5) of over 10 µM and an EC50 (hTP) of over 10 µM.

`O=C(O)CCCCCC[C@@H]1[C@@H](c2ccc(CC3CCCCC3)cc2)[C@H](O)C[C@H]1Cl` gave an EC50 (hEP2/Gqs5) of 3.45 µM and an EC50 (hDP/Gqs5) of over 10 µM.

`CCCC1(C(O)c2cccc(C3C(O)CC(=O)C3Cc3cccc(OCC(=O)O)c3)c2)CCC1` (stereo not shown) was tested, and the EC50 (hDP/Gqs5) was over 10 µM.

Work on `O=C(O)CCCCCC[C@H]1C(=O)C[C@@H](O)[C@@H]1c1ccc2c(c1)CCC2O` (stereo partly shown) yielded an EC50 (hTP) of over 10 µM.

Compound `O=C(O)CCC/C=C\C[C@@H]1[C@@H](c2ccc(C3(O)CCC3)cc2)[C@H](O)C[C@H]1Cl` has an EC50 (hEP2/Gqs5) of 0.513 µM and an EC50 (hTP) of over 10 µM.

With `COC(=O)CCCCCC[C@@H]1[C@@H](c2ccc(C3(O)CCC3)cc2)[C@H](O)C[C@H]1Cl` the EC50 (hEP2/Gqs5) was over 10 µM and the EC50 (hTP) was over 10 µM.

`O=C(O)CCCCCC[C@@H]1[C@@H](c2ccc(C3(O)CCC3)cc2)[C@H](O)C[C@H]1Cl` showed an EC50 (hEP2/Gqs5) of 0.743 µM and an EC50 (hTP) of over 10 µM.

Reference: patent US7799821B2, “Therapeutic compounds” (Allergan, Inc., priority 2004, dated 2010)
